14 compounds from patent US9504676B2, “Molecules inhibiting a metabolic pathway involving the Syk protein tyrosine kinase and method for identifying said molecules” (CENTRE NATIONAL DE LA RECHERCHE SCIENTIFIQUE, priority 2008, dated 2016) can be followed below.

Each structure is given as a SMILES string.

The target of assay [1] is T1, murine Syk tyrosine kinase protein (GST:Syk 6-242) (Mus musculus, UniProt P48025).
T1 construct: made in house
Briefly: ADA method: displacement of the binding of scFv G4G11 with Syk (ELISA). The settings on record: small molecules at 10 μM, scFv G4G11 100 nM; for inhibition at 10 µM: read-out: In vit. inhib.: mean inhibition % of the binding of scFv G4G11 with Syk in the ADA method. From the text: The term “percentage of inhibition” of the binding of an antibody or antibody fragment with Syk protein, particularly refers to the ratio […], where A consists of the intensity of a signal proportional to the quantity of an antibody or antibody fragment bound with Syk protein in the absence of a molecule according to the invention and B the intensity of the same signal in the presence of a molecule according to the invention under the same conditions. […] This test may be performed for example according to the protocol described in example 3-2) hereinafter.
The inventors developed the ADA (Antigen Displacement Assay) method to identify small molecules capable of displacing the association with scFv G4G11 with Syk. […] To understand the mode of action of C-13, the inventors firstly identified the binding site of G4G11 using the SPOT method^16. An epitope located on the N-terminal SH2 domain of Syk, comprising amino acids 65-74 and 100% preserved in mouse, rat and human sequences, was identified.
The ADA method was then applied to each of these […] molecules to measure the ability thereof to inhibit the binding of scFv G4G11 with Syk.
(§1) • 1) Chemical products and antibodies. A chemical bank of 3000 molecules (a varied subset) was acquired from ChemBridge, Inc. (San Diego, Calif.). Stocks of solutions of small molecules were prepared at a rate of 10 mM in DMSO (dimethylsulphoxide), except for C-13 (methyl 2-{5-[(3-benzyl-4-oxo-2-thioxo-1,3-thiazolidin-5-ylidene)methyl]-2-furyl}benzoate, ChemBridge ID No. 6197026) prepared in DMF (dimethylformamide). Unless specified otherwise, all the reagents were supplied by Sigma. Dinitrophenyl (DNP) hapten was acquired from Calbiochem. Sepharose GammaBind G and all the secondary antibodies were supplied by GE Health Amersham Biosciences. The anti-Syk, anti-Lyn, anti-Btk, anti-PLC-γ1, anti-PLC-γ2, anti-LAT, anti-SLP-76, anti-p38, anti-JNK, anti-Vav, anti-Akt1 and 9E10 antibodies conjugated with HRP were acquired from Santa Cruz Biotechnology. The anti-phospho-p44/42 MAP Kinase, anti-p44/42 MAP Kinase, anti-phospho-p38, anti-phospho-JNK, anti-phospho-Akt1 antibodies were acquired from Cell Signaling. The anti-phospho-LAT and anti-phospho-PLC-γ1 antibodies were supplied by Biosource and the anti-phospho-SLP-76 antibodies by BD Pharmingen. The 4G10 anti-phosphotyrosine monoclonal antibody was acquired from Upstate Biotechnology. • 2) ADA method: ELISA type high-speed molecule screening test, based on antibody displacement (WO 2005106481). The recombinant fusion protein GST:Syk 6-242^8 comprising the residues 6 to 242 of murine Syk tyrosine kinase protein illustrated in FIG. 8B (SEQ ID No. 4) was immobilised on an ELISA plate at a final concentration of 10 μg ml^−1. For the screening of the chemical molecule bank, the small molecules, diluted in PBS at a final concentration of 10 μM were added to the wells for one hour at ambient temperature, before adding the fragment scFv G4G11 at a final concentration of 100 nM for an additional hour. The binding of G4G11 with Syk was assessed by adding the 9E10 monoclonal antibody conjugated with HRP detecting the amino acid sequence EQKLISEEDLN of human c-myc protein located at the C-terminal end of the scFv fragment. To generate Syk mutants, targeted mutagenesis was used on GST:Syk 6-242 protein and the binding of G4G11 with the mutants was assessed in the presence of 5 μM of C-13. • 3) Cells, culture conditions and functional tests. Anti-DNP 2682-I mouse monoclonal antibody was used as the culture supernatant of hybridomas containing 1 μg/ml of IgE. Femoral bone marrow cells were sampled and cultured in Opti-MEM medium (Gibco) supplemented with 10% foetal calf serum and 4% X63 transfectant supernatant secreting murine IL-3. RBL-2H3 (ATCC) leukaemic rat basophil cells were maintained in a single-layer culture in RPMI 1640 medium supplemented with 10% foetal calf serum (Gibco). […]
A general note: ELISA stands for enzyme-linked immunosorbent assay.

Another assay deals with RBL-2H3 cells. As to the kind of experiment: cells. Format: cell-based, rat. The settings on record: RBL-2H3 cells; for IC50: Rattus norvegicus, read-out: Degran. IC50: concentration inhibiting mast cell degranulation by 50%. Here is the method:
These 87 molecules were also tested in vitro to assess the ability thereof to inhibit RBL-2H3 cell degranulation (see table 1).
as §1, with “(Gibco). Measurements of β-hexosaminidase released by the RBL-2H3 cells were performed as described previously^7, except that, after 12-16 hours of incubation with anti-DNP IgE (0.5 μg/ml), the cells were incubated for 90 min at 37° C. in RPMI medium supplemented with the specified concentrations of C-13 or DMF (0.25%). The cells were stimulated for 45 min with DNP-BSA (50 ng ml^−1) or ionomycin (1.5 μM). The BMMC cells were incubated for one hour at 37° C. with anti-DNP IgE (100 ng/ml). They were then incubated with C-13 (3 μM) or DMF (0.3%) for 3 hours at 37° C., and stimulated with varied concentrations of DNP-BSA. The level of β-hexosaminidase released was measured 10 min later and the TNF-α titration was performed by means of a cytotoxicity test on L929 cells as described previously^10, 3 hours after stimulation. The results illustrated in FIG. 3 are representative of three independent experiments. • 4) Immunoprecipitations, in vitro kinase assays and immunodetection.” for “(Gibco).”

As usually defined, the inhibition is the percentage by which the read-out fell short of the control. On to `COc1cc(C2C(C(=O)c3ccc(Cl)cc3)=C(O)C(=O)N2CCCN2CCOCC2)cc(OC)c1OC` (stereo not shown) [Molecule 25, 4-(4-chlorobenzoyl)-3-hydroxy-1-[3-(4-morpholinyl)propyl]-5-(3,4,5-trimethoxyphenyl)-1,5-dihydro-2H-pyrrol-2-one], for which the inhibition at 10 µM in assay [1] was found to be 56.5%. For the same compound, the IC50 with RBL-2H3 cells is greater than 10 µg/mL.
The matching figures for `CC(C)c1ccc(C2C(C(=O)c3ccccc3)=C(O)C(=O)N2CCN2CCOCC2)cc1` (stereo not shown) [Molecule 26]: 56.5% and greater than 10 µg/mL.
Regarding `COc1ccc(C2C(C(=O)c3ccc(Cl)cc3)=C(O)C(=O)N2CCN2CCOCC2)cc1OC` (stereo not shown) [Molecule 27, 4-(4-chlorobenzoyl)-5-(3,4-dimethoxyphenyl)-3-hydroxy-1-[2-(4-morpholinyl)ethyl]-1,5-dihydro-2H-pyrrol-2-one], in assay [1], the inhibition at 10 µM was 55%. The IC50 with RBL-2H3 cells was greater than 10 µg/mL.
Regarding `CCN(CC)CCN1C(=O)C(O)=C(C(=O)c2ccc(C)cc2)C1c1cc(OC)ccc1OC` (stereo not shown) [Molecule 28, 1-[2-(diethylamino)ethyl]-5-(2,5-dimethoxyphenyl)-3-hydroxy-4-(4-methylbenzoyl)-1,5-dihydro-2H-pyrrol-2-one], the inhibition at 10 µM in assay [1] turned out to be 54%. Moreover, in the assay on RBL-2H3 cells, the IC50 was greater than 10 µg/mL.
`O=C(CCCN1C(=O)c2ccccc2C1=O)Nc1sc2c(c1C(=O)NCC1CCCO1)CCC2` (stereo not shown) [Molecule 30]: the inhibition at 10 µM in assay [1] worked out at 51%. Besides, the IC50 in the assay on RBL-2H3 cells was greater than 10 µg/mL.
As to `COc1ccc(C2C(C(=O)c3ccc(F)cc3)=C(O)C(=O)N2CCN2CCOCC2)cc1OC` (stereo not shown) [Molecule 31, 5-(3,4-dimethoxyphenyl)-4-(4-fluorobenzoyl)-3-hydroxy-1-(2-(4-morpholinyl)ethyl]-1,5-dihydro-2H-pyrrol-2-one], in assay [1], the inhibition at 10 µM is 50%. Also, in the assay on RBL-2H3 cells, the IC50 was greater than 10 µg/mL.
As for `CN(C)S(=O)(=O)c1ccc(C(=O)C2=C(O)C(=O)N(CCN3CCOCC3)C2c2ccccc2)cc1` (stereo not shown) [Molecule 32, 4-({4-hydroxy-1-[2-(4-morpholinyl)ethyl]-5-oxo-2-phenyl-2,5-dihydro-1H-pyrrol-3-yl}carbonyl)-N,N-dimethylbenzenesulphonamide], in assay [1], the inhibition at 10 µM came to 50%. In addition, the IC50 with RBL-2H3 cells is greater than 10 µg/mL.
Regarding `COc1ccc(C2C(C(=O)c3ccc(F)cc3)=C(O)C(=O)N2CCN2CCOCC2)c(OC)c1` (stereo not shown) [Molecule 33], the inhibition at 10 µM in assay [1] stood at 50%. The IC50 with RBL-2H3 cells is greater than 10 µg/mL.
In the case of `COc1ccc(C2C(C(=O)c3ccc(C)cc3)=C(O)C(=O)N2CCN2CCOCC2)c(OC)c1` (stereo not shown) [Molecule 34], the inhibition at 10 µM in assay [1] came to 50%. The IC50 in the assay with RBL-2H3 cells was greater than 10 µg/mL.
Consider `COc1ccc(C2C(C(=O)c3ccco3)=C(O)C(=O)N2CCN2CCOCC2)cc1OC` (stereo not shown) [Molecule 35, 5-(3,4-dimethoxyphenyl)-4-(2-furoyl)-3-hydroxy-1-[2-(4-morpholinyl)ethyl]-1,5-dihydro-2H-pyrrol-2-one], for which the inhibition at 10 µM in assay [1] turned out to be 50%. The IC50 in the assay on RBL-2H3 cells was greater than 10 µg/mL.
For `COc1ccc(C2C(C(=O)c3ccc(Cl)cc3)=C(O)C(=O)N2CCN2CCOCC2)cc1OC` (stereo not shown) [Molecule 36, 4-(4-chlorobenzoyl)-5-(3,4-dimethoxyphenyl)-3-hydroxy-1-[2-(4-morpholinyl)ethyl]-1,5-dihydro-2H-pyrrol-2-one], the “In vit. inhib.: mean inhibition % of the binding of scFv G4G11 with Syk in the ADA method” value in assay [1] was found to be 50%. Moreover, in the assay with RBL-2H3 cells, the “Degran. IC50: concentration inhibiting mast cell degranulation by 50%” value is greater than 10 µg/mL.
Regarding `CCOC(=O)c1sc(N2C(=O)C(O)=C(C(=O)c3ccccc3)C2c2ccc(OC)cc2)nc1C` (stereo not shown) [Molecule 37, ethyl 2-[3-benzoyl-4-hydroxy-2-(4-methoxyphenyl)-5-oxo-2,5-dihydro-1H-pyrrol-1-yl]-4-methyl-1,3-thiazole-5-carboxylate], the inhibition at 10 µM in assay [1] is 50%. Further, in the assay on RBL-2H3 cells, the IC50 was greater than 10 µg/mL.
The matching figures for `COc1ccc(C2C(C(=O)c3cccs3)=C(O)C(=O)N2CCN2CCOCC2)cc1OC` (stereo not shown) [Molecule 38, 5-(3,4-dimethoxyphenyl)-3-hydroxy-1-[2-(4-morpholinyl)ethyl]-4-(2-thienylcarbonyl)-1,5-dihydro-2H-pyrrol-2-one]: 50% and greater than 10 µg/mL.
For the compound `COc1ccc(C2C(C(=O)c3ccc(Cl)cc3)=C(O)C(=O)N2CCN2CCOCC2)cc1` (stereo not shown) [Molecule 39, 4-(4-chlorobenzoyl)-3-hydroxy-5-(4-methoxyphenyl)-1-[2-(4-morpholinyl)ethyl]-1,5-dihydro-2H-pyrrol-2-one], the inhibition at 10 µM in assay [1] was 50%. Moreover, the IC50 in the assay with RBL-2H3 cells is greater than 10 µg/mL.
